# Source: PMC8805605, “Discovery of Dimeric Arylsulfonamides as Potent ADAM8 Inhibitors” (ACS Medicinal Chemistry Letters, 2021)
# How the values were obtained:
# Format in all cases: biochemical
# MMP-1 = target: T1, MMP-1 (Homo sapiens, UniProt P03956); test: MMP-1 fluorometric inhibition assay; conditions: mean of three independent experiments in duplicate, read-out: In vitro inhibitory activity IC50 on MMP-1
# T1 construct: purchased Calbiochem (Merck-Millipore)
# T1 sequence (P03956 100-469): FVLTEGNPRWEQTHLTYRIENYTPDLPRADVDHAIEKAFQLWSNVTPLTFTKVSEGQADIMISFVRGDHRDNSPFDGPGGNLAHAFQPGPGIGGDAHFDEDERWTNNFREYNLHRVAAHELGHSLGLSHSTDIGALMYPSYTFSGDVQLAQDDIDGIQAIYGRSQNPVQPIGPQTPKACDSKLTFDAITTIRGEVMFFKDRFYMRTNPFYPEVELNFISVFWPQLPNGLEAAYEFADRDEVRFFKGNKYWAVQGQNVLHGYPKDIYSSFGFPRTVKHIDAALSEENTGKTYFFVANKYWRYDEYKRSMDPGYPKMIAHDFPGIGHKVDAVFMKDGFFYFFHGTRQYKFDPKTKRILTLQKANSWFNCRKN
# Protocol: (§1) The newly synthesized bivalent derivatives 1–3 were then tested in vitro on human recombinant ADAM8 in comparison with JG26 by a fluorometric assay. The inhibitory activity against a panel of MMPs and ADAM10/17 was determined as well to assess their selectivity profile. […]
# (§2) VI. Biological Activity on Isolated Enzymes
# (§3) MMP and ADAM10 inhibition assays.
# (§4) Recombinant human MMP-14 catalytic domain was a kind gift of Prof. Gillian Murphy (Department of […]
# (§5) Oncology, University of Cambridge, UK). Pro-MMP-1, pro-MMP-2, and pro-MMP-9, were purchased […]
# (§6) from Calbiochem (Merck-Millipore). Pro-MMP-12 and ADAM10 were purchased from R&D Systems.
# (§7) Proenzymes were activated immediately prior to use with p-aminophenylmercuric acetate (APMA 2 […]
# (§8) mM for 1 h at 37°C for MMP-2 and MMP-1, 1 mM for 1 h at 37°C for MMP-9). Pro-MMP-12 was […]
# (§9) auto activated by incubating in the fluorometric assay buffer (FAB: Tris 50 mM, pH = 7.5, NaCl 150 […]
# (§10) mM, CaCl2 10 mM, Brij 35 0.05% and DMSO 1%) for 30 h at 37°C. For assay measurements, each […]
# (§11) inhibitor stock solution (DMSO, 10 mM) was further diluted in FAB at seven different concentrations.
# (§12) Activated enzyme (final concentration 0.56 nM for MMP-2, 1.3 nM for MMP-9, 1.0 nM for MMP- […]
# (§13) 14cd, 2.0 nM for MMP-1, 2.3 nM for MMP-12 and 20 nM for ADAM10) and inhibitor solutions were […]
# (§14) incubated in the assay buffer for 3 h at 25 °C. ADAM10 was incubated for 1 h at 37°C in a different […]
# (§15) buffer at pH 9 (Tris 25 mM, ZnCl2 25 µM, Brij-35 0.005 %). After the addition of 200 µM solution of […]
# (§16) the fluorogenic substrate Mca-Lys-Pro-Leu-Gly-Leu-Dap(Dnp)-Ala-Arg-NH2 (Bachem) for all the […]
# (§17) enzymes in DMSO (final concentration 2 µM for all enzymes, 10 µM for ADAM10), the hydrolysis […]
# (§18) was monitored every 10 sec. for 15 min. recording the increase in fluorescence (λ ex = 325 nm, λ em = […]
# (§19) 400 nm) using a Molecular Devices SpectraMax Gemini XPS plate reader. The assays were performed […]
# (§20) in triplicate in a total volume of 200 μL per well in 96-well microtitre plates (Corning, black, NBS).
# (§21) Control wells lack inhibitor. The MMP inhibition activity was expressed in relative fluorescent units […]
# (§22) (RFU). Percent of inhibition was calculated from control reactions without the inhibitor. IC50 was determined using the formula: v i/v o = 1/(1 + [I]/ IC50), where v i is the initial velocity of substrate cleavage in the presence of the inhibitor at concentration [I] and v o is the initial velocity in the absence of the inhibitor. Results were analyzed using SoftMax Pro software (version 5.4.3, Molecular Devices, Sunnyvale, CA) and Prism Software version 5.0 (GraphPad Software, Inc., La Jolla, CA, USA).
# ADAM8 and ADAM17 inhibition assays […]
# MMP-12 = target: T2, MMP-12 (Homo sapiens, UniProt P39900); test: MMP-12 fluorometric inhibition assay; conditions: mean of three independent experiments in duplicate, read-out: In vitro inhibitory activity IC50 on MMP-12
# T2 construct: purchased R&D Systems
# Protocol: as §1, §2, §3, §4, §5, §6, §7, §8, §9, §10, §11, §12, §13, §14, §18
# 400 nm) using a Molecular Devices SpectraMax Gemini XPS plate reader. […]
# as §22, with “USA). […]” for “USA).”
# [1] = target: T3, Recombinant human MMP-14 catalytic domain (Homo sapiens, UniProt P50281); test: MMP-14 fluorometric inhibition assay; conditions: mean of three independent experiments in duplicate, read-out: In vitro inhibitory activity IC50 on MMP-14
# T3 construct: Recombinant human MMP-14 catalytic domain was a kind gift of Prof; Gillian Murphy; kind gift of Prof; Gillian Murphy (Department of Oncology, University of Cambridge, UK)
# Protocol: as §1, §2, §3, §4, §5, §6, §7, §8, §9, §10, §11, §12, §13, §14, §15, §16, §17, §18, §19, §20, §21
# as §22, with “USA). […]” for “USA).”
# T2 sequence (P39900 106-470): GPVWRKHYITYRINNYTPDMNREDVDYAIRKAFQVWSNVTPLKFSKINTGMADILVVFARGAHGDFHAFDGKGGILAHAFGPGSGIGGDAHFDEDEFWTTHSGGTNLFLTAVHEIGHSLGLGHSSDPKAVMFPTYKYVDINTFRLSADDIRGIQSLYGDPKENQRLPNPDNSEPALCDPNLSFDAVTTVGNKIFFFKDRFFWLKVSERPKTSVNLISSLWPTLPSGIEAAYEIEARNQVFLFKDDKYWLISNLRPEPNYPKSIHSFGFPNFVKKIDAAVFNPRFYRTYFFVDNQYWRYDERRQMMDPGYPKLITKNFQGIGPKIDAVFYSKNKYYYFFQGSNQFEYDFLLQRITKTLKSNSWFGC
Structure (SMILES),IC50 (MMP-1) [µM],IC50 (MMP-12) [µM],IC50 [1] [µM]
O=C(CCCNC(=O)c1cccc(C(=O)NCCCC(=O)NCCC[C@@H](NS(=O)(=O)c2ccc(OCc3cc(Br)cc(Br)c3)cc2)C(=O)NO)c1)NCCC[C@@H](NS(=O)(=O)c1ccc(OCc2cc(Br)cc(Br)c2)cc1)C(=O)NO [Compound 1],415,0.242,57
O=C(NCCC[C@@H](NS(=O)(=O)c1ccc(OCc2cc(Br)cc(Br)c2)cc1)C(=O)NO)c1cccc(C(=O)NCCC[C@@H](NS(=O)(=O)c2ccc(OCc3cc(Br)cc(Br)c3)cc2)C(=O)NO)c1 [Compound 2],> 200,0.041,50
O=C(NCCC[C@@H](NS(=O)(=O)c1ccc(OCc2cc(Br)cc(Br)c2)cc1)C(=O)NO)NCCC[C@@H](NS(=O)(=O)c1ccc(OCc2cc(Br)cc(Br)c2)cc1)C(=O)NO [Compound 3],348,,234
"NC(=O)NCCC[C@@H](NS(=O)(=O)c1ccc(OCc2cc(Br)cc(Br)c2)cc1)C(=O)NO [JG26, reference compound]",> 500,0.0094,19.5
